Laboratory results reported in ChEMBL document CHEMBL1201862, “PubChem BioAssay data set” (2004).
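Compound exposure: 48 hours, 5 concentrations, 96-well plates. GI50 marks 50% less growth.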 Calls of active or inactive are those of the source. Rule as the data show it: active = GI50 up to about 1.1 µM and inactive = higher.

What was measured:
Experiment in all cases: NCI anticancer screen, dose series, 48 h
A549 = tested on: A549
OVCAR-4 = tested on: OVCAR-4
ACHN = tested on: ACHN
CCRF-CEM = tested on: CCRF-CEM
HCC 2998 = tested on: HCC 2998
MDA-N = tested on: MDA-N
SF-295 = tested on: SF-295
T47D = tested on: T47D
SK-OV-3 = tested on: SK-OV-3
NCI-H226 = tested on: NCI-H226
NCI-H23 = tested on: NCI-H23
MDA-MB-231 = tested on: MDA-MB-231
EKVX = tested on: EKVX
OVCAR-8 = tested on: OVCAR-8
MCF7 = tested on: MCF7
MDA-MB-435 = tested on: MDA-MB-435
DU-145 = tested on: DU-145
SW-620 = tested on: SW-620
SN12C = tested on: SN12C
786-0 = tested on: 786-0

SMILES | GI50 (A549) | GI50 (OVCAR-4) | GI50 (ACHN) | GI50 (CCRF-CEM) | GI50 (HCC 2998) | GI50 (MDA-N) | GI50 (SF-295) | GI50 (T47D) | GI50 (SK-OV-3) | GI50 (NCI-H226) | GI50 (NCI-H23) | GI50 (MDA-MB-231) | GI50 (EKVX) | GI50 (OVCAR-8) | GI50 (MCF7) | GI50 (MDA-MB-435) | GI50 (DU-145) | GI50 (SW-620) | GI50 (SN12C) | GI50 (786-0)
O=c1c2cc([N+](=O)[O-])cnc2sn1-c1ccc(Oc2ccccc2)cc1 | > 100 µM (inactive) | 25.8 µM (inactive) | 53.1 µM (inactive) | 26.9 µM (inactive) | > 100 µM (inactive) | 78 µM (inactive) | 31 µM (inactive) | 10.8 µM (inactive) | 19.8 µM (inactive) | 45.2 µM (inactive) | 36.4 µM (inactive) | 22.1 µM (inactive) | 70.6 µM (inactive) | 82.8 µM (inactive) | 35.3 µM (inactive) | 34 µM (inactive) | 24.8 µM (inactive) | 57 µM (inactive) | > 100 µM (inactive) | 43.5 µM (inactive)
Cc1cc(-c2nc3cc(F)ccc3s2)ccc1NC(=O)C(C)N (stereo not given) | 3.77 µM (inactive) | 1.02 µM (active) | 3.73 µM (inactive) | 0.64 µM (active) | 0.097 µM (active) | 4.21 µM (inactive) | 3.82 µM (inactive) | 0.0847 µM (active) | 4.1 µM (inactive) | > 25 µM (inactive) | 2.67 µM (inactive) | 3.77 µM (inactive) | 3.1 µM (inactive) | 4.54 µM (inactive) | 0.0258 µM (active) | 4.81 µM (inactive) | 4.42 µM (inactive) | 4.62 µM (inactive) | 4.32 µM (inactive) | 3.76 µM (inactive)
Clc1cc(Cl)cc(/N=C/C=C/Nc2cc(Cl)cc(Cl)c2)c1 | 18.3 µM (inactive) | 14.6 µM (inactive) | 20.1 µM (inactive) | 20.8 µM (inactive) | 15.2 µM (inactive) | 19.4 µM (inactive) | 23 µM (inactive) | 22.9 µM (inactive) | 35.5 µM (inactive) | 14.4 µM (inactive) | 14.2 µM (inactive) | 14.2 µM (inactive) | 5.12 µM (inactive) | 20.4 µM (inactive) | 13.4 µM (inactive) | 18.6 µM (inactive) | 21 µM (inactive) | 19 µM (inactive) | 17.4 µM (inactive) | 17.3 µM (inactive)
CC(C)NCC(O)c1ccc(OCc2ccccc2)c(OCc2ccccc2)c1-c1ccccc1 (stereo not given) | 1.72 µM (inactive) | 1.89 µM (inactive) | 1.68 µM (inactive) | 1.95 µM (inactive) | 1.69 µM (inactive) | 1.69 µM (inactive) | 2.05 µM (inactive) | 2.74 µM (inactive) | 1.67 µM (inactive) | 2.33 µM (inactive) | 1.97 µM (inactive) | 1.69 µM (inactive) | 14.3 µM (inactive) | 1.73 µM (inactive) | 1.79 µM (inactive) | 1.79 µM (inactive) | 1.75 µM (inactive) | 1.63 µM (inactive) | 1.75 µM (inactive) | 1.71 µM (inactive)
CN1C(=O)C2(C=CC(O)CC2)c2ccccc21 (stereo not given) | > 100 µM (inactive) | > 100 µM (inactive) | > 100 µM (inactive) | > 100 µM (inactive) | > 100 µM (inactive) | > 100 µM (inactive) | > 100 µM (inactive) | > 100 µM (inactive) | > 100 µM (inactive) | > 100 µM (inactive) | > 100 µM (inactive) | > 100 µM (inactive) | > 100 µM (inactive) | > 100 µM (inactive) | > 100 µM (inactive) | > 100 µM (inactive) | > 100 µM (inactive) | > 100 µM (inactive) | > 100 µM (inactive) | > 100 µM (inactive)
O=C(c1ccccc1)N1OCCC1Nc1ccc(Br)cc1 (stereo not given) | 3.64 µM (inactive) | > 10 µM (inactive) | 0.615 µM (active) | 3.8 µM (inactive) | 3.85 µM (inactive) | 3.8 µM (inactive) | 2.08 µM (inactive) | > 10 µM (inactive) | > 10 µM (inactive) | > 10 µM (inactive) | > 10 µM (inactive) | > 10 µM (inactive) | > 10 µM (inactive) | > 10 µM (inactive) | 5.97 µM (inactive) | 0.499 µM (active) | 6.24 µM (inactive) | 0.818 µM (active) | > 10 µM (inactive) | > 10 µM (inactive)
CCc1cc2c(c3c1CCCC3=O)CC1(C2)Cc2cc(CC)c3c(c2C1)C(=O)CCC3 | > 100 µM (inactive) | 73.6 µM (inactive) | 66.4 µM (inactive) | 26.7 µM (inactive) | > 100 µM (inactive) | > 100 µM (inactive) | > 100 µM (inactive) | > 100 µM (inactive) | > 100 µM (inactive) | > 100 µM (inactive) | > 100 µM (inactive) | 36.5 µM (inactive) | > 100 µM (inactive) | > 100 µM (inactive) | > 100 µM (inactive) | 47.2 µM (inactive) | > 100 µM (inactive) | > 100 µM (inactive) | > 100 µM (inactive) | > 100 µM (inactive)
